Results reported in paper PMC12454639, “Direct disassembly of α-syn preformed fibrils into α-syn monomers by an all-D-peptide” (NPJ Parkinson's Disease, 2025).
“Also recorded” adds a separate entry of the source. Square brackets hold non-standard residues; d marks the D form. Peptide text beside a SMILES is read from it.

Tests used:
small α-syn PFF seeds = experiment: Seeded ThT aggregation assay; assay type: biochemical; settings: then 20 µM α-syn monomer, n = 3
Experimental: The Thioflavin T (ThT) assay is commonly used for the visualization of α-syn fibrilization, since the dye ThT is able to bind to the amyloidogenic cross-β-sheet proportions of fibril structures. Recombinant α-syn was thawed on ice and centrifuged for 30 min at 21,000 × g and 4 °C. The concentration of the supernatant was determined as described previously. Lyophilized D-peptides were thawed at RT for 1 h and dissolved in 500 µl PBS pH 7.4. After centrifugation for 30 min at 21,000 × g the supernatant concentration was determined by UV–vis using the corresponding extinction coefficient at A280. All ThT assay experiments were performed at 37 °C with 15 µM ThT and 0.05% sodium azide (w/v) in PBS pH 7.4 if not otherwise stated. ThT fluorescence was monitored with bottom optics at λex = 448 nm and λem = 482 nm in a fluorescence plate reader with orbital averaging on 3 mm (Clariostar or Polarstar Optima, BMG labtech, GE). Prior to measurement start, 120 µl sample solution was transferred to a non-binding 96-half area well plate with transparent flat bottom (Corning, USA). One borosilicate glass bead (d = 3.0 mm, Hilgenberg, GE) was added to each well for all de novo aggregation assays. For seeded aggregation assays, no bead was used, and samples were incubated under quiescent conditions. Wells that surrounded the sample wells were filled with the same volume of buffer to improve heat distribution. Experiments were performed with five replicates (n = 5) if not otherwise stated.
(§1) ThT assay was used for different purposes. […] Lag-time and t½ were calculated as described previously. […] Measurements were taken every 5 min (n = 3).
small α-syn PFF seeds were prepared as described previously with some modifications. First, insoluble PFF were produced by incubation of 300 µM recombinant α-syn in a LoBind reaction tube (Eppendorf GmbH, GE) with one borosilicate glass bead (d = 3.0 mm; Hilgenberg, DE) in 20 mM NaPi, pH 7.0, 150 mM NaCl, 0.05% (w/v) sodium azide for one week at 37 °C. The insoluble PFF were harvested by ultracentrifugation at 100,000 × g for 30 min at 4 °C, and the pellet was washed several times with 20 mM NaPi, pH 7.0, 150 mM NaCl. The monomer equivalent concentration was determined by measuring the α-syn concentration in the supernatant after the first centrifugation and subtracting it from the start concentration for fibrilization. […]
ThT fluorescence progression was measured in a 96-well non-binding half-area plate (Corning, USA) with a FLUOStar platereader (BMG labtech, GE) at λex = 448 nm and λem = 482 nm. […] 10 µM α-syn monomer was incubated with 5, 10 and 20 µM peptide at 37 °C, adding one borosilicate glass bead per well (d = 3.0 mm, Hilgenberg, GE) with continuous orbital shaking at 300 rpm in between reads. […]

[1] = target: T1, α-syn monomer (full-length) (Homo sapiens, UniProt P37840); experiment: SPR single-cycle kinetics, peptide immobilized, α-syn as analyte; assay type: binding; settings: for deviation from 1:1 model (additional binding mode): suggested from deviation of fits for later injections
T1 construct: made in house; host or cells: E. coli BL21(DE3), co-expressed with pNatB (N-terminal acetylation enzyme from Schizosaccharomyces pombe)
Experimental: The experiment was performed as an individual measurement. […] The non-referenced signal of the active and referenced surface is shown in Supplementary Fig. 7. […] Full-length α-syn was injected for 100 s at 30 µl/min in PBS 7.4 in a serial dilution ranging from 15 to 250 nM, followed by a dissociation time of 60 min. Y-axis scaling was adjusted to (A).
Measurements were performed using an 8K Biacore device (Cytiva, USA). Interactions were measured using single-cycle kinetics experiments. For all assays, the peptide compounds were immobilized as ligand on the sensor surface and recombinant α-syn was injected as analyte in the flow. […] Surface quenching was performed using 1 M ethanolamine, pH 8.3. The kinetic experiments were performed using a flow rate of 30 µl/min in PBS pH 7.4 if not otherwise stated. The surface was regenerated in between cycles using 30 s injections of 2 M Gua-HCl at 30 µl/min. Data evaluation was performed using Biacore Insight Evaluation Software v3.0 (Cytiva, USA).

α-syn (1–108) = experiment: De novo ThT aggregation of 1-108 truncated α-syn; assay type: biochemical; settings: 25 µM 1-108 α-syn, equimolar peptide
Experimental: as §1
Aggregation curves were fitted with a symmetric Boltzmann fit and the steady state signal was normalized to 1.

Row | Compound | effect on elongation rate (small α-syn PFF seeds; 5 µM peptide, 50 nM PFF pre-incubated 20 h) | inhibition of seeding (small α-syn PFF seeds; 20 µM or higher peptide (20 µM for SVD-1_scrambled+5r), 50 nM PFF pre-incubated 20 h) | Kd [1] [nM] | koff ([1]; 1:1 Langmuir-based model, immobilized peptide, α-syn analyte, PBS pH 7.4, dissociation 60 or 30 min, individual measurement) [s⁻¹] | kon ([1]; 1:1 Langmuir-based model, immobilized peptide, α-syn analyte, PBS pH 7.4, individual measurement) [M⁻¹ s⁻¹] | sequence specificity of binding ([1]; comparison of SVD-1a and SVD-1a_scr.+5r) | deviation from 1:1 model (additional binding mode) [1] | inhibition of α-syn (1–108) aggregation (α-syn (1–108)) | inhibition of seeded aggregation (small α-syn PFF seeds; 50 nM small α-syn PFF pre-incubated 20 h with peptide, 37 °C quiescent)
1 | CC[C@@H](C)[C@@H](NC(=O)[C@@H](Cc1c[nH]cn1)NC(=O)[C@@H](CCC(=O)O)NC(=O)[C@@H](CCC(N)=O)NC(=O)[C@@H](Cc1c[nH]c2ccccc12)NC(=O)[C@@H](Cc1ccc(O)cc1)NC(=O)[C@H](NC(=O)[C@@H](CCC(=O)O)NC(=O)[C@@H](Cc1c[nH]cn1)NC(=O)[C@H](NC(=O)[C@H]1CCCN1C(=O)[C@@H](CC(C)C)NC(=O)[C@H](N)CCCNC(=N)N)[C@H](C)O)[C@H](C)O)C(=O)N[C@H](Cc1c[nH]c2ccccc12)C(=O)N[C@H](Cc1c[nH]cn1)C(=O)N[C@H](C)C(=O)N[C@H](CCCNC(=N)N)C(=O)N[C@H](CCCNC(=N)N)C(=O)N[C@H](CCCNC(=N)N)C(=O)N[C@H](CCCNC(=N)N)C(=O)N[C@H](CCCNC(=N)N)C(N)=O [SVD-1a] (H-[dR][dL][dP][dT][dH][dE][dT][dY][dW][dQ][dE][dH][dI][dW][dH][dA][dR][dR][dR][dR][dR]-NH2) | a reduction of the elongation rate was observed | complete inhibition of the seeding capacity | 0.1 | 3.13e-05 | 313000 | sequence-specific | additional low-affinity binding mode in the higher nM range | delay of 1- 108 truncated α-syn aggregation | –
2 | CC[C@@H](C)[C@@H](NC(=O)[C@@H](Cc1c[nH]cn1)NC(=O)[C@@H](CCC(=O)O)NC(=O)[C@@H](CCC(N)=O)NC(=O)[C@@H](Cc1c[nH]c2ccccc12)NC(=O)[C@@H](Cc1ccc(O)cc1)NC(=O)[C@H](NC(=O)[C@@H](CCC(=O)O)NC(=O)[C@@H](Cc1c[nH]cn1)NC(=O)[C@H](NC(=O)[C@H]1CCCN1C(=O)[C@@H](CCSC)NC(=O)[C@H](N)CCCCN)[C@H](C)O)[C@H](C)O)C(=O)N[C@H](Cc1c[nH]c2ccccc12)C(=O)N[C@H](Cc1c[nH]cn1)C(=O)N[C@H](C)C(N)=O [SVD-1] (H-[dK][dM][dP][dT][dH][dE][dT][dY][dW][dQ][dE][dH][dI][dW][dH][dA]-NH2) | – | – | – | – | – | – | additional low-affinity binding mode in the higher nM range | delay of 1- 108 truncated α-syn aggregation | significantly decelerate amyloid growth in the seeded environment; also recorded: inhibits elongation and secondary nucleation of α-syn
